Test [1] concerns the target T1, TRα (TR-receptor hybrid with yeast Gal4 DBD) (Homo sapiens, UniProt P10827).
T1 construct: expressed in transfected cells; host or cells: HEK293
T1 sequence (P10827 1-410 isoform P10827-2): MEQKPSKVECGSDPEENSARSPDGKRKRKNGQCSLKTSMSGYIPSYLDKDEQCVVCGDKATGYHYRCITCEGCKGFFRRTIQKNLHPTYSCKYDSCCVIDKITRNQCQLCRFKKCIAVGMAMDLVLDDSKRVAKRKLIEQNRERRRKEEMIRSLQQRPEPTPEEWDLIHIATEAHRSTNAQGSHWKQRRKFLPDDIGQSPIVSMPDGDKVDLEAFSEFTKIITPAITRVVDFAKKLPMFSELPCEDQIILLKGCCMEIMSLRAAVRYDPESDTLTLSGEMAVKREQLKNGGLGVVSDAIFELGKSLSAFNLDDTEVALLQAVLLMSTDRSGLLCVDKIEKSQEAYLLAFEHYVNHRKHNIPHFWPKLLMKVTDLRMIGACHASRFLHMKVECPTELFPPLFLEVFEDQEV
Put plainly: Thyroid-hormone reporter-gene assay, TRα. The test is classed as cell-based. The following applies: HEK293-derived reporter cells, firefly luciferase, 24 hr incubation. Here is the method:
(§1) Compounds were tested for thyroid-hormone receptor activity using TR reporter-gene assays. Reporter cells used in the assays express a TR-receptor hybrid (either TRα or TRβ) in which the native N-terminal DNA binding domain (DBD) has been replaced with that of the yeast Gal4 DBD. The reporter gene, firefly luciferase, is functionally linked to the Gal4 upstream activation sequence (UAS). Both cell lines were derived from human embryonic kidney (HEK293). • Step 1: A suspension of reporter cells was prepared in cell recovery medium containing 10% charcoal-stripped FBS, and dispensed into assay plates. […] These intermediate stocks were subsequently diluted directly into compound screening medium containing 10% charcoal-stripped FBS to generate “2×-concentration” treatment media (containing 0.2, 0.4 or 0.8% DMSO). • Step 3: At the end of the pre-incubation period, culture media were discarded from the assay plates, and all wells received 100 μl of compound screening medium. 100 μl of each of the previously prepared “2×-concentration” treatment media were dispensed into duplicate assay wells, thereby achieving the desired final treatment concentrations. The final concentration of DMSO in all assay wells was 0.1, 0.2 or 0.4%. Assay plates were incubated for 24 hr in a cell culture incubator (37° C./5% CO2/85% humidity). • Step 4: At the 24 h assay endpoint, treatment media were discarded and 100 μl/well of luciferase detection reagent was added. Relative luminometer units (RLUs) were quantified from each assay well.

In test [2] the target is T2, TRβ (TR-receptor hybrid with yeast Gal4 DBD) (Homo sapiens, UniProt P10828).
T2 construct: expressed in transfected cells; host or cells: HEK293
T2 sequence (P10828 217-461 limits assumed): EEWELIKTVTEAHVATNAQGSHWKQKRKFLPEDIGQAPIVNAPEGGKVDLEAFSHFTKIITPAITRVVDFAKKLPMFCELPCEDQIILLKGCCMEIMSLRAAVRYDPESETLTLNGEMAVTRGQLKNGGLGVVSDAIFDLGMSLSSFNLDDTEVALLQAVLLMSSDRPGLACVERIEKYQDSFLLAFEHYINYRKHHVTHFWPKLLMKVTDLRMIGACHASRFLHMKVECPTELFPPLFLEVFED
Put plainly: Thyroid-hormone reporter-gene assay, TRβ. Type of test: cell-based. The following applies: for pEC50: HEK293-derived reporter cells, firefly luciferase, 24 hr incubation; for T3-SI, selectivity index EC50 (TRα)/EC50 (TRβ): calculated from the reporter-gene EC50 values. On the procedure: as §1

pEC50: −log10 of the molar value.

In general, pEC50 refers to the EC50 on a negative log10 scale, so that one unit is a factor of ten.

For `CC(C)c1cc(Cc2c(Cl)cc(-n3nc(C#N)c(O)nc3=O)cc2Cl)ccc1O` [Compound 1, 2-(3,5-dichloro-4-(4-hydroxy-3-isopropylbenzyl)phenyl)-5-hydroxy-3-oxo-2,3-dihydro-1,2,4-triazine-6-carbonitrile], in test [1], the pEC50 was 6.00 to 7.00. Further, in test [2], the pEC50 is 7.00 to 8.00 and the “T3-SI, selectivity index EC50 (TRα)/EC50 (TRβ)” value (shortened to “T3-SI, selectivity index EC50”) was “+++ (T3-SI>30×)”.
In test [1], `CC(C)c1c(O)ccc(Cc2c(Cl)cc(-n3nc(C#N)c(O)nc3=O)cc2Cl)c1F` [Compound 2, 2-(3,5-dichloro-4-(2-fluoro-4-hydroxy-3-isopropylbenzyl)phenyl)-5-hydroxy-3-oxo-2,3-dihydro-1,2,4-triazine-6-carbonitrile] showed a pEC50 of 7.00 to 8.00. Besides, in test [2], the negative logarithm of the EC50 (pEC50) was 7.00 to 8.00 and the “T3-SI, selectivity index EC50” value was “++ (3×<T3-SI≤30×)”.
For the molecule `N#Cc1nn(-c2cc(Cl)c(Cc3ccc(O)c(-c4cccc(OC(F)F)c4)c3)c(Cl)c2)c(=O)nc1O` [Compound 3, 2-(3,5-dichloro-4-((3′-(difluoromethoxy)-6-hydroxy-[1,1′-biphenyl]-3-yl)methyl)phenyl)-5-hydroxy-3-oxo-2,3-dihydro-1,2,4-triazine-6-carbonitrile], the pEC50 in test [1] was under 6.00. Further, in test [2], the negative logarithm of the EC50 (pEC50) was 6.00 to 7.00 and the “T3-SI, selectivity index EC50” value was “+++ (T3-SI>30×)”.
The molecule `N#Cc1nn(-c2cc(Cl)c(Cc3ccc(O)c(Cc4ccc(F)cc4)c3)c(Cl)c2)c(=O)nc1O` [Compound 4, 2-(3,5-dichloro-4-(3-(4-fluorobenzyl)-4-hydroxybenzyl)phenyl)-5-hydroxy-3-oxo-2,3-dihydro-1,2,4-triazine-6-carbonitrile] showed a negative-log EC50 (pEC50) in test [1] of under 6.00. Further, in test [2], the negative logarithm of the EC50 (pEC50) is 6.00 to 7.00 and the “T3-SI, selectivity index EC50” value is “++ (3×<T3-SI≤30×)”.
In the case of `CC(C)c1cc(Cc2c(Cl)cc(-n3nc(C#N)c(O)nc3=O)cc2C(C)C)ccc1O` [Compound 5, 2-(3-chloro-4-(4-hydroxy-3-isopropylbenzyl)-5-isopropylphenyl)-5-hydroxy-3-oxo-2,3-dihydro-1,2,4-triazine-6-carbonitrile], the negative logarithm of the EC50 (pEC50) in test [1] was 7.00 to 8.00; in test [2], over 8.00. The “T3-SI, selectivity index EC50” value in test [2] is “++ (3×<T3-SI≤30×)”.
On to `CC(C)c1cc(Cc2c(Cl)cc(-n3nc(C#N)c(O)nc3=O)c(F)c2Cl)ccc1O` [Compound 6, 2-(3,5-dichloro-2-fluoro-4-(4-hydroxy-3-isopropylbenzyl)phenyl)-5-hydroxy-3-oxo-2,3-dihydro-1,2,4-triazine-6-carbonitrile], for which, in test [1], the pEC50 is 6.00 to 7.00. For the same molecule, in test [2], the negative-log EC50 (pEC50) was 6.00 to 7.00 and the “T3-SI, selectivity index EC50” value is “++ (3×<T3-SI≤30×)”.
For the molecule `CC(C)c1c(O)ccc(Cc2c(Cl)cc(-c3cc(F)c(O)c(F)c3)cc2Cl)c1F` [Compound 7, 3′,5′-dichloro-3,5-difluoro-4′-(2-fluoro-4-hydroxy-3-isopropylbenzyl)-[1,1′-biphenyl]-4-ol], the negative-log EC50 (pEC50) in test [1] was under 6.00. Further, in test [2], the pEC50 was 6.00 to 7.00 and the “T3-SI, selectivity index EC50” value was “++ (3×<T3-SI≤30×)”.
Consider `CC(C)c1c(O)ccc(Cc2c(Cl)cc(-c3ccc(F)c(O)c3F)cc2Cl)c1F` [Compound 8, 3′,5′-dichloro-2,4-difluoro-4′-(2-fluoro-4-hydroxy-3-isopropylbenzyl)-[1,1′-biphenyl]-3-ol], for which the negative logarithm of the EC50 (pEC50) in test [1] and in test [2] was under 6.00 throughout.
`CC(C)c1cc(Cc2c(Cl)cc(-c3cc(O)no3)cc2Cl)ccc1O` [Compound 9, 5-(3,5-dichloro-4-(4-hydroxy-3-isopropylbenzyl)phenyl)isoxazol-3-ol] gave a negative-log EC50 (pEC50) in test [1] of 6.00 to 7.00. Besides, in test [2], the pEC50 is 7.00 to 8.00 and the “T3-SI, selectivity index EC50” value was “++ (3×<T3-SI≤30×)”.
Consider `O=c1nc(O)cnn1-c1cc(Cl)c(Cc2ccc(O)c(-c3cccc(OC(F)F)c3)c2)c(Cl)c1` [Compound 10, 2-(3,5-dichloro-4-((3′-(difluoromethoxy)-6-hydroxy-[1,1′-biphenyl]-3-yl)methyl)phenyl)-5-hydroxy-1,2,4-triazin-3(2H)-one], for which the negative-log EC50 (pEC50) in test [1] and in test [2] was over 8.00 throughout. Further, the “T3-SI, selectivity index EC50” value in test [2] is “++ (3×<T3-SI≤30×)”.
